{
  "source": "patent EP0116431B1",
  "about": "“Aromatase inhibiting pyrimidine derivatives” (ELI LILLY AND COMPANY, priority 1983, dated 1984)",
  "key": {"[1]": {"test_system": "DMBA-induced Mammary Tumor", "experiment": "DMBA-induced mammary tumor inhibition", "assay_type": "in vivo, Sprague-Dawley rats", "conditions": "for Mean Tumor Area (mm^2) Start: start of test", "experimental": "Mammary tumors were produced in female Sprague-Dawley rats which were 50-60 days old by the gavage administration of 20 mg of 7,12-dimethylbenz[a]anthracene (DMBA). About six weeks after DMBA administration, the mammary glands were palpated at weekly intervals for the appearance of tumors. Whenever one or more tumors appeared and were measurable in an animal, that animal was selected for experimentation. […] Each control and test group contained 8 animals. The test compound was administered either mixed into the food at a concentration of 300 ppm (corresponding to an appropriate daily dose of 30 mg/kg) or the compounds were dissolved or suspended in corn oil and administered once daily by gavage. Every experiment included a group of control rats having tumors and were either given food without the compound admixed or corn oil vehicle by gavage, depending on how the test compound was administered. […] The area of each tumor was calculated by multiplying the shortest and longest diameters of the tumor. The treatment and measurement of animals continued for 4-8 weeks at which time the final areas of the tumors were determined. For each compound (and control) at each dose level, the change in the mean tumor area was determined. The mean change was analyzed for its significance using Dunnett's t-test."}, "[2]": {"test_system": "synthesis of estrogens", "conditions": "seven days, testosterone propionate-treated immature female rats"}, "[3]": {"conditions": "300 ppm in the diet, 5 weeks test"}, "[4]": {"conditions": "300 ppm in feed (approximately 30 mg/kg/day)"}},
  "note": "Read-outs that look alike come from different tables or passages of the source.",
  "data": [
    {"smiles": "Clc1ccc(C(c2ccc(Cl)cc2)c2cncnc2)cc1", "note": "[compound 27, 5-bis(4-chlorophenyl)methylpyrimidine]", "values": [
      {"measurement": "Mean Tumor Area (mm^2) Finish", "setting": "[1]; 300 ppm in the diet, 5 weeks", "value": 154, "unit": "mm^2"},
      {"measurement": "Mean Tumor Area (mm^2) Start", "setting": "[1]; [3]", "value": 78.6, "unit": "mm^2"},
      {"measurement": "Mean Uterine Weight (mg)", "setting": "[2]; 30 ppm in feed (approximately 3 mg/kg/day)", "value": "92.25^+ mg"},
      {"measurement": "Mean Uterine Weight (mg)", "setting": "[2]; [4]", "value": "80.20^+ mg"}
    ]},
    {"smiles": "OC(c1ccc(Cl)cc1)(c1ccc(Cl)cc1)c1cncnc1", "note": "[compound 29, α,α-bis(4-chlorophenyl)-5-pyrimidinemethanol]", "values": [
      {"measurement": "Mean Tumor Area (mm^2) Finish", "setting": "[1]; 1 mg/kg daily by gavage, 5 weeks", "value": "210^+ mm^2"},
      {"measurement": "Mean Tumor Area (mm^2) Start", "setting": "[1]; 1 mg/kg daily by gavage, 5 weeks test", "value": 66, "unit": "mm^2"},
      {"measurement": "Mean Tumor Area (mm^2) Finish", "setting": "[1]; 5 mg/kg daily by gavage, 4 weeks", "value": 123.5, "unit": "mm^2"},
      {"measurement": "Mean Tumor Area (mm^2) Start", "setting": "[1]; 5 mg/kg daily by gavage, 4 weeks test", "value": 56.3, "unit": "mm^2"},
      {"measurement": "Mean Tumor Area (mm^2) Finish", "setting": "[1]; 7.5 mg/kg daily by gavage, 5 weeks", "value": "159^+ mm^2"},
      {"measurement": "Mean Tumor Area (mm^2) Start", "setting": "[1]; 7.5 mg/kg daily by gavage, 5 weeks test", "value": 63, "unit": "mm^2"},
      {"measurement": "Mean Tumor Area (mm^2) Finish", "setting": "[1]; 15 mg/kg daily by gavage, 5 weeks", "value": "9^+ mm^2"},
      {"measurement": "Mean Tumor Area (mm^2) Start", "setting": "[1]; 15 mg/kg daily by gavage, 5 weeks test", "value": 50, "unit": "mm^2"},
      {"measurement": "Mean Tumor Area (mm^2) Finish", "setting": "[1]; 30 mg/kg daily by gavage, 4 weeks", "value": 34.3, "unit": "mm^2"},
      {"measurement": "Mean Tumor Area (mm^2) Start", "setting": "[1]; 30 mg/kg daily by gavage, 4 weeks test", "value": 71.5, "unit": "mm^2"},
      {"measurement": "Mean Tumor Area (mm^2) Finish", "setting": "[1]; 30 mg/kg daily by gavage, 5 weeks", "value": "146^+ mm^2"},
      {"measurement": "Mean Tumor Area (mm^2) Start", "setting": "[1]; 30 mg/kg daily by gavage, 5 weeks test", "value": 69, "unit": "mm^2"},
      {"measurement": "Mean Tumor Area (mm^2) Finish", "setting": "[1]; 300 ppm in the diet, 5 weeks", "value": "10.0^+ mm^2"},
      {"measurement": "Mean Tumor Area (mm^2) Start", "setting": "[1]; [3]", "value": 60.7, "unit": "mm^2"},
      {"measurement": "Mean Tumor Area (mm^2) Finish", "setting": "[1]; 300 ppm in the diet, 8 weeks", "value": "355^+ mm^2"},
      {"measurement": "Mean Tumor Area (mm^2) Start", "setting": "[1]; 300 ppm in the diet, 8 weeks test", "value": 160.4, "unit": "mm^2"},
      {"measurement": "Mean Uterine Weight (mg)", "setting": "[2]; [4]", "value": "75.00^+ mg"}
    ]}
  ]
}
